Reference: patent publication US20140235545A1, “The use of HCV immunogenic peptide or a derivative thereof in the prevention or treatment of arthritis” (priority 2011, published 2014)
No end group written: not given here.

System: adjuvant arthritis (Freund's complete adjuvant)
Assay: Protective effect of peptide A on adjuvant arthritis in rats
Assay type: in vivo, SD rats
Details: for ankle joint swelling value: X±SD; for ankle joint swelling value / Lesion scoring ( X ± SD), joint lesion severity: n=10; for inhibition rate of ankle joint swelling: vs model group; for Lesion scoring ( X ± SD), joint lesion severity: 32nd day, left rear ankle joint histopathology, lower score = milder
Experimental: SPF-level SD rats, each weighting 180 g-220 g, with male and female each in half, provided by Experimental Animal Center of Chinese Academy of Military Medical.
Peptide A (which was prepared with the same procedure as in Embodiment 1). It was to be dissolved in physiological saline when used.
SD rats, with male and female each in half, were randomly divided into five groups with 10 rats in each group, respectively were model group (employing physiological saline and Freund's complete adjuvant); control group (employing the same volume of physiological saline as the model group); peptide A high, medium and low dose groups (employing Freund's complete adjuvant and peptide A, wherein each group was given different doses of peptide A, respectively were 174 μg/kg·d, 87 μg/kg·d and 43.5 μg/kg·d, peptide A was dissolved in physiological saline to form peptide A solution with desired concentration). Peptide A solution in each dose was administered by subcutaneous injection, 0.1 ml of peptide A solution per 100 g body weight of rats. The control group employed the same amount of physiological saline as the peptide A solution (0.1 ml of physiological saline per 100 g body weight of rats).
Each group rats were administered according to the following manner. These rats were normally fed every day during the administration.
On the 1st day (including this day), except the control group, for rats of other groups (the model group and the peptide A high, medium and low dose groups), 0.5 ml of Freund's complete adjuvant was subcutaneously injected into plantar skin of right rear foot of every rat. Then, they were subcutaneously injected with 0.05 ml of Freund's complete adjuvant for one time every other day, a total of 15 times.
From the 2nd day (including this day), the rats of peptide A high, medium and low dose groups each were administered with corresponding the dose of peptide A. Then, they were subcutaneously injected with the dose the amount of peptide A for one time every other day, a total of 15 times. At the same time, the rats of the control group and the model group were subcutaneously injected the same amount of physiological saline as that of the peptide A for the high, medium and low dose groups for one time every other day, a total of 15 times.
Measurement for the experimental results was conducted as follows. Firstly, before administration to rats of each group, left rear ankle circumference […] of each rat was measured by a flexible rule as a base value, and then circumference of left rear ankle with inflammation of each rat was measured at the 4th, 8th, 12th, 16th, 20th, 24th, 28th, and 32nd day, respectively. Swelling value obtained by circumference after inflammation minus circumference before inflammation was used to observe changes of primary and secondary inflammation of Freund's complete adjuvant-induced rats.
Secondly, at the 32nd day, rats of each group were killed, and their left rear foot ankle joints ware quickly taken out, fixed in 10% formalin and then embedded in paraffin after decalcification, sectioned and stained with HE. The proliferation of synovial tissue, degeneration of covering epithelial cells (synovial cells), congestion of interstitial substance, inflammatory cell infiltration, damage or fibrosis of arthrodial cartilage, and inflammatory cell infiltration or fibrosis of subcutaneous tissue around the joint, were observed. According to severity of joint lesions, the lesions were scored as “1 score (few or mild lesion)”, “2 scores (moderate or medium lesion)”, “3 scores (large or severe lesion)”, and “4 scores (very severe lesion)”. Very mild lesion was scored as “0.5”, and no lesion tissue was scored as “0”. Accumulate all scores to obtain a total score for one group, and then calculate average score ( X±SD) for each animal in each group. The lower score indicates the milder grade of the lesion. […]

[1] = high dose 174 μg/kg·d s.c., the 4th day
[2] = high dose 174 μg/kg·d s.c., the 8th day
[3] = high dose 174 μg/kg·d s.c., the 12th day
[4] = high dose 174 μg/kg·d s.c., the 16th day
[5] = high dose 174 μg/kg·d s.c., the 20th day
[6] = high dose 174 μg/kg·d s.c., the 24th day
[7] = high dose 174 μg/kg·d s.c., the 28th day
[8] = high dose 174 μg/kg·d s.c., the 32nd day
[9] = low dose 43.5 μg/kg·d s.c., the 4th day
[10] = low dose 43.5 μg/kg·d s.c., the 8th day
[11] = low dose 43.5 μg/kg·d s.c., the 12th day
[12] = low dose 43.5 μg/kg·d s.c., the 16th day
[13] = low dose 43.5 μg/kg·d s.c., the 20th day
[14] = low dose 43.5 μg/kg·d s.c., the 24th day
[15] = low dose 43.5 μg/kg·d s.c., the 28th day
[16] = low dose 43.5 μg/kg·d s.c., the 32nd day
[17] = medium dose 87 μg/kg·d s.c., the 4th day
[18] = medium dose 87 μg/kg·d s.c., the 8th day
[19] = medium dose 87 μg/kg·d s.c., the 12th day
[20] = medium dose 87 μg/kg·d s.c., the 16th day
[21] = medium dose 87 μg/kg·d s.c., the 20th day
[22] = medium dose 87 μg/kg·d s.c., the 24th day
[23] = medium dose 87 μg/kg·d s.c., the 28th day
[24] = medium dose 87 μg/kg·d s.c., the 32nd day

Q: How did the “arthritis lesion (histopathology) after administration” value (all dose groups, effect in descending order high, medium, low) turn out when GQTYTSG [Peptide A] was run?
A: reduced in different degrees

Q: And the “ankle joint swelling value” [1]?
A: 8.5 ± 1.5 mm

Q: What about the “inhibition rate of ankle joint swelling” value [1] of the same substance?
A: (17.5%)

Q: What about the “ankle joint swelling value” [2] of the same substance?
A: 10.2 ± 1.7 mm

Q: What about the “inhibition rate of ankle joint swelling” value [2] of the same substance?
A: (28.2%)

Q: What about the “ankle joint swelling value” [3] of the same substance?
A: 10.8 ± 1.5 mm

Q: What about the “inhibition rate of ankle joint swelling” value [3] of the same substance?
A: (31.6%)

Q: And the “ankle joint swelling value” [4]?
A: 11.1 ± 1.6 mm

Q: What about the “inhibition rate of ankle joint swelling” value [4] of the same substance?
A: (39.7%)

Q: What about the “ankle joint swelling value” [5] of the same substance?
A: 11.4 ± 1.8 mm

Q: And the “inhibition rate of ankle joint swelling” value [5]?
A: (37.4%)

Q: What about the “ankle joint swelling value” [6] of the same substance?
A: 10.8 ± 1.7 mm

Q: And the “inhibition rate of ankle joint swelling” value [6]?
A: (38.3%)

Q: What about the “ankle joint swelling value” [7] of the same substance?
A: 10.4 ± 1.8 mm

Q: What about the “inhibition rate of ankle joint swelling” value [7] of the same substance?
A: (37.7%)

Q: What about the “ankle joint swelling value” [8] of the same substance?
A: 9.5 ± 1.9 mm

Q: What about the “inhibition rate of ankle joint swelling” value [8] of the same substance?
A: (39.9%)

Q: What about the “Lesion scoring ( X ± SD), joint lesion severity” value (shortened to “Lesion scoring ( X ± SD)”) (high dose group (174 μg/kg·d s.c.)) of the same substance?
A: 3.60 ± 1.26

Q: And the “inhibition rate to the joint swelling” value (high dose group (174 μg/kg·d))?
A: ~40%

Q: And the “joint swelling compared with rats of the model group” value (high, medium and low dose groups, observation)?
A: significantly reduced joint swelling

Q: What about the skin ulcer symptom (high, medium and low dose groups, part of model rats had skin ulcers on the 24th day) of the same substance?
A: did not have skin ulcer symptom

Q: And the “ankle joint swelling value” [9]?
A: 9.3 ± 1.4 mm

Q: What about the “inhibition rate of ankle joint swelling” value [9] of the same substance?
A: (9.7%)

Q: And the “ankle joint swelling value” [10]?
A: 13.5 ± 2.1 mm

Q: And the “inhibition rate of ankle joint swelling” value [10]?
A: (4.9%)

Q: And the “ankle joint swelling value” [11]?
A: 13.9 ± 1.6 mm

Q: And the “inhibition rate of ankle joint swelling” value [11]?
A: (12.0%)

Q: What about the “ankle joint swelling value” [12] of the same substance?
A: 14.2 ± 1.7 mm

Q: What about the “inhibition rate of ankle joint swelling” value [12] of the same substance?
A: (22.8%)

Q: And the “ankle joint swelling value” [13]?
A: 14.6 ± 2.3 mm

Q: What about the “inhibition rate of ankle joint swelling” value [13] of the same substance?
A: (19.8%)

Q: And the “ankle joint swelling value” [14]?
A: 14.2 ± 1.4 mm

Q: And the “inhibition rate of ankle joint swelling” value [14]?
A: (18.8%)

Q: And the “ankle joint swelling value” [15]?
A: 14.0 ± 1.8 mm

Q: And the “inhibition rate of ankle joint swelling” value [15]?
A: (16.2%)

Q: What about the “ankle joint swelling value” [16] of the same substance?
A: 13.8 ± 1.5 mm

Q: And the “inhibition rate of ankle joint swelling” value [16]?
A: (12.6%)

Q: And the “Lesion scoring ( X ± SD)” value (low dose group (43.5 μg/kg·d s.c.))?
A: 4.10 ± 0.99

Q: What about the “ankle joint swelling value” [17] of the same substance?
A: 8.9 ± 1.6 mm

Q: What about the “inhibition rate of ankle joint swelling” value [17] of the same substance?
A: (13.6%)

Q: What about the “ankle joint swelling value” [18] of the same substance?
A: 11.9 ± 1.8 mm

Q: What about the “inhibition rate of ankle joint swelling” value [18] of the same substance?
A: (16.2%)

Q: And the “ankle joint swelling value” [19]?
A: 12.1 ± 2.3 mm

Q: What about the “inhibition rate of ankle joint swelling” value [19] of the same substance?
A: (23.4%)

Q: And the “ankle joint swelling value” [20]?
A: 12.9 ± 1.8 mm

Q: What about the “inhibition rate of ankle joint swelling” value [20] of the same substance?
A: (29.9%)

Q: What about the “ankle joint swelling value” [21] of the same substance?
A: 13.2 ± 1.4 mm

Q: And the “inhibition rate of ankle joint swelling” value [21]?
A: (27.5%)

Q: And the “ankle joint swelling value” [22]?
A: 13.0 ± 1.8 mm

Q: And the “inhibition rate of ankle joint swelling” value [22]?
A: (25.7%)

Q: What about the “ankle joint swelling value” [23] of the same substance?
A: 12.8 ± 1.6 mm

Q: What about the “inhibition rate of ankle joint swelling” value [23] of the same substance?
A: (23.4%)

Q: What about the “ankle joint swelling value” [24] of the same substance?
A: 12.5 ± 1.8 mm

Q: And the “inhibition rate of ankle joint swelling” value [24]?
A: (20.9%)

Q: And the “Lesion scoring ( X ± SD)” value (medium dose group (87 μg/kg·d s.c.))?
A: 4.00 ± 0.67
